From US20100093706A1, “MULTIMEDIATOR TRANSPORTER INHIBITORS FOR USE IN TREATMENT OF CENTRAL NERVOUS SYSTEM DISORDERS” (priority 2006, published 2010) come the findings set out here.

One series deals with rat. The series is described as follows: acute single-dose toxicology in rat. The class given is in vivo. Conditions: rat (n = 5), i.v., observed 72 hours. On the procedure:
An in vivo evaluation was carried out to determine the maximum tolerated dose of numerous test compounds in rat. The compounds were administered i.v., and the animals were then observed for 72 hours.
Briefly, experimental rats, in groups of 5 animals, were administered with various doses of respective inhibitors (e.g. 30, 90, 120, and 200 mg/kg), and the observed toxicological effects were recorded.

A further series relates to rats. The experiment in a line: forced swim test (behavioral despair assay) in rats. In kind it is in vivo. The note with it: rat. On the procedure: In vivo efficacy of several illustrative inhibitors of the instant invention, (1), (3), and (4), were measured using standard forced swim test model using rat. The objective of this study was to assess the antidepressant effects of test compounds in the behavioral despair assay in rats using a modification of a method described by Porsolt R. D. et al. in Behavioural despair in rats: a new model sensitive to antidepressant treatment, Eur. J. Pharmacol., 47: 379-391, 1978; Porsolt et al., Nature 266: 730-732, 1977; and Porsolt et al., in Psychopharmacology, Olivier, Mos, and Slangen (eds) Birkhäuser Verlag, Basel, pp. 137-159, 1991. Briefly, when mice (or rats) are forced to swim in a cylinder from which no escape is possible, they readily adopt a characteristic immobile posture and make no further attempts to escape except for small movements needed to keep floating. The immobility is considered by some to reflect a “depressive mood” (Porsolt et al., Nature 266: 730-732, 1977) in which animals cease to struggle to escape the aversive situation. The immobility induced by the procedure is influenced by a wide variety of antidepressants (Porsolt et al., in Psychopharmacology, Olivier, Mos, and Slangen (eds) Birkhauser Verlag, Basel, pp. 137-159, 1991) and has a good predictive validity in that it detects antidepressants with different mechanisms of action (TCAs, SSRIs, MAOIs, and other atypical ones). The test is sensitive to muscle-relaxant (benzodiazepines) and sedative (neuroleptics) effects, leading to enhanced immobility (Porsolt et al., supra).
In a typical experiment, animals are placed singly into a cylinder (e.g. 46×30 cm) containing fresh water at about 20° C. for 6 minutes. The activity (or immobility) of the animal is measured by an observer minute by minute. In more detail, the animals were preconditioned in a pretest session, where the rats were individually forced to swim inside a vertical plexiglass cylinder containing water maintained at 19-20° C. After 15 minutes in the water, they were allowed to dry for […] in a heated enclosure. Twenty-four hours later, the compounds were administered either intraperitoneally or orally to the animals. One hour after administration of the test compound, animals were put back into the cylinder containing water. The total duration of immobility was measured during the last 4 minutes of a 6 minute test.
The results are expressed as the percentage of variation of the total duration of immobility calculated from the mean value of the vehicle-treated group (% variation=[(immobility duration of vehicle−immobility duration of test compound)/(immobility duration of vehicle)]×100%).
In order to measure the in vivo efficacy of inhibiting DAT in rats using an inhibitor of the instant invention, one test inhibitor ((1), (3), or (4)) was injected i.p. as racemic mixtures of diastereomers into the animals, at various-doses (e.g. 7.5 and […]). Sibutramine (2.0 and 2.5 mg/kg), Bupropion (7.5 and 10 mg/kg), and Imipramine (30 mg/kg) were similarly administered as controls. […] Asterisks indicate highly statistical significant results.
A fourth inhibitor, (6) was administered p.o. as a racemic mixture of diastereomers at either 35 or 75 mg/kg. Sibutramine (5.0 and 3.75 mg/kg), Bupropion (30 and 40 mg/kg), and Imipramine (100 mg/kg) were similarly administered as controls.
Similarly, (1) was also administered p.o. as a racemic mixture of enriched (95:5) diastereomer at either 35 or 75 mg/kg. […]

The next series has as its target T1, NET (h) (Homo sapiens, UniProt P23975).
T1 construct: expressed in transfected cells; host or cells: MDCK
The experiment in a line: cell-based. The class given is cell-based. Conditions: human; nM; read-out: NET (h) in vitro functional uptake. How it is done:
(§1) Functional activity of the compounds was determined in vitro in cellular assays using recombinant human cell lines.

The target in another series is T2, DAT (h) (Homo sapiens, UniProt Q01959).
T2 construct: expressed in transfected cells
T2 sequence (Q01959 whole entry): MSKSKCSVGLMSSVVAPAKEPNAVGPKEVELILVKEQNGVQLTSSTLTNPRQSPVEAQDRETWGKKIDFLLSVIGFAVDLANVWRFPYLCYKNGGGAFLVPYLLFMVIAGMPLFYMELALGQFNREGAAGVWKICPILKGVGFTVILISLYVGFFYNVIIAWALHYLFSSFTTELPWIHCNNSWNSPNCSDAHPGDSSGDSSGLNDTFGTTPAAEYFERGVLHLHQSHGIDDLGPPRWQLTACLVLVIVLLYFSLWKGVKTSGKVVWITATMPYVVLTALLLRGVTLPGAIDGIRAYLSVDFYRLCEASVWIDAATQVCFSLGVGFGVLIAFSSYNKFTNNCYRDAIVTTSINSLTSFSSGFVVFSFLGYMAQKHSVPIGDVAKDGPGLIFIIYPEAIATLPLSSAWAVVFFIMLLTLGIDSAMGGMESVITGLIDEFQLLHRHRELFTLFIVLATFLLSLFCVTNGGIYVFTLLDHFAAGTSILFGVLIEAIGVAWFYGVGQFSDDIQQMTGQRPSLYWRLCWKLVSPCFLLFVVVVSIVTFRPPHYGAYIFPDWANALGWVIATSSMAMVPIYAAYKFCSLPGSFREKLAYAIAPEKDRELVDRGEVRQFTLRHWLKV
The experiment in a line: cell-based. The note with it: human; nM; read-out: DAT (h) in vitro functional uptake. The class given is cell-based. On the procedure: as §1

The target of a further series is T3, 5-HT (h) (Homo sapiens, UniProt P31645).
T3 construct: expressed in transfected cells; host or cells: HEK-293
T3 sequence (P31645 whole entry): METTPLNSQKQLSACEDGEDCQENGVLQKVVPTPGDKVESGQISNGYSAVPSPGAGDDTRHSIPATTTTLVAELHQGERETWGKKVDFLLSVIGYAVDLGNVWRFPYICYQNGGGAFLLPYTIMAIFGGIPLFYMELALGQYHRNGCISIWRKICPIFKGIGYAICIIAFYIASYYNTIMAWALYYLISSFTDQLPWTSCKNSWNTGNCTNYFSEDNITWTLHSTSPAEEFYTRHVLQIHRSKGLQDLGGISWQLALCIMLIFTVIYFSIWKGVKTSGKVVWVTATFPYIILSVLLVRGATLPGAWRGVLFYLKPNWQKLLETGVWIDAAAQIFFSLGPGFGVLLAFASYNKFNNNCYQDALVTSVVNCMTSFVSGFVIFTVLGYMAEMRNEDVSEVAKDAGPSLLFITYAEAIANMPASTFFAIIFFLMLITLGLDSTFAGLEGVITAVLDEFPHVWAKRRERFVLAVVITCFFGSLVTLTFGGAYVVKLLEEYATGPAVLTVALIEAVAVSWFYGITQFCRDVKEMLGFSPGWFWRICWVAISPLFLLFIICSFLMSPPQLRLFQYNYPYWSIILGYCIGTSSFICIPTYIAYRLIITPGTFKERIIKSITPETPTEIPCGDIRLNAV
The series is described as follows: cell-based. In kind it is cell-based. Conditions: human; nM; read-out: 5-HT (h) in vitro functional uptake. How it is done: as §1

The subject of a further series is Sprague-Dawley rats. The experiment in a line: 7 day multidose oral dosing toxicology study. The note with it: for 7 day multidose oral toxicology, symptoms: Sprague-Dawley rats n = 6 (3M/3F). In kind it is in vivo, rat. An excerpt: The representative results are listed below in Table VI.

Entries after “also recorded” stand apart in the source; their conditions may differ. A value given as a limit tells only on which side of the number the result lay.

T1 sequence (P23975 whole entry): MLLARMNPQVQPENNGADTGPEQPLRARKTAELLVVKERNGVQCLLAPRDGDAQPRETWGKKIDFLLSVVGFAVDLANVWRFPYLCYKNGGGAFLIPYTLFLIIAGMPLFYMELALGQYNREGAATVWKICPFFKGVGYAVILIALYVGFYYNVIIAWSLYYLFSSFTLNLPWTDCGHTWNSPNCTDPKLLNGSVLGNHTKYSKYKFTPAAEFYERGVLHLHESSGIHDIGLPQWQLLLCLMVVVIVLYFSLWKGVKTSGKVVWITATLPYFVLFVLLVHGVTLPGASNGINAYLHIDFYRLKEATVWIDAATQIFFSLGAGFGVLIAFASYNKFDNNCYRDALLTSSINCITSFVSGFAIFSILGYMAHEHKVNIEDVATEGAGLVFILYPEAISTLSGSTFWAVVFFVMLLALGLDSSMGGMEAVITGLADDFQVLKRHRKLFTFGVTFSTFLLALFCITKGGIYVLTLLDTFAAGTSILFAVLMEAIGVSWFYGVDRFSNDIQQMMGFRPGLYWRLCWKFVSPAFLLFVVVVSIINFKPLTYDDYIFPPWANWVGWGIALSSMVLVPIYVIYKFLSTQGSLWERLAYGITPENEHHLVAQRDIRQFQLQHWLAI

Turning to `CC1CCC(COc2ccc(C(F)(F)F)cc2)CN1CC(O)C1(c2ccc(Cl)cc2)CCC1` (centres unmarked) [(4)], the “acute single dose toxicology, observed symptoms” value is “decreased grip strength and limb tone and convulsions” with rat (120 mg/kg); “Convulsions” with rat (200 mg/kg). Moreover, the “forced swim test efficacy versus commercial drugs (FIG. 1)” value with rats (i.p., racemic mixtures of diastereomers) is “performed equally well, if not better, than the commercial drugs Sibutramine, Bupropion, and Imipramine”.

In the case of `CC1C(COc2ccc(C(F)(F)F)cc2)CCCN1CC(O)C1(c2ccc(Cl)cc2)CCC1` (centres unmarked) [(6)], the “acute single dose toxicology, observed symptoms” value in the series on rat (200 mg/kg) was “no observed symptoms”. Besides, the “forced swim test efficacy versus commercial drugs (FIG. 2, FIG. 3)” value in the series with rats (p.o., 35 or 75 mg/kg) was “performed equally well, if not better, than the commercial drugs Sibutramine, Bupropion, and Imipramine”.

For `C[C@@H]1[C@H](COc2ccc(C(F)(F)F)cc2)CCCN1CC(O)C1(c2ccc(Cl)cc2)CCC1` (some centres unmarked) [(6′)], the EC50 at NET (h) and on DAT (h) was 3 nM each time.

Consider `C[C@H]1CC[C@@H](COc2ccc(C(F)(F)F)cc2)CN1CC1(c2ccc(Cl)cc2)CCC1` [(13), (2S,5R)-1-{[1-(4-Chlorophenyl)cyclobutyl]methyl}-2-methyl-5-{[4-(trifluoromethyl)phenoxy]methyl}piperidine], for which the EC50 at NET (h) was 100 nM; on DAT (h), less than 1 nM; at 5-HT (h), more than 2000 nM.

Take `C[C@H]1CCN(CC2(c3ccc(Cl)cc3)CCC2)C[C@@H]1COc1ccc(C(F)(F)F)cc1` [(14), (3R,4S)-1-{[1-(4-Chlorophenyl)cyclobutyl]methyl}-4-methyl-3-{[4-(trifluoromethyl)phenoxy]methyl}piperidine]: the EC50 at NET (h) is 150 nM; on DAT (h), less than 1 nM; on 5-HT (h) it was more than 2000 nM.

`C[C@@H]1CCN(CC2(c3ccc(Cl)cc3)CCC2)C[C@H]1COc1ccc(C(F)(F)F)cc1` [(15), (3S,4R)-1-{[1-(4-Chlorophenyl)cyclobutyl]methyl}-4-methyl-3-{[4-(trifluoromethyl)phenoxy]methyl}piperidine]: the EC50 at NET (h) is 350 nM; on DAT (h) it was less than 1 nM; at 5-HT (h) it was more than 2000 nM.

As to `C[C@H]1CCN(CC2(c3ccc(Cl)cc3)CCC2)C[C@H]1COc1ccc(C(F)(F)F)cc1` [(16), (3S,4S)-1-{[1-(4-Chlorophenyl)cyclobutyl]methyl}-4-methyl-3-{[4-(trifluoromethyl)phenoxy]methyl}piperidine], the EC50 at NET (h) is 100 nM; at DAT (h), less than 1 nM; on 5-HT (h), more than 2000 nM.

As to `C[C@H]1CC[C@@H](COc2ccc(C(F)(F)F)cc2)CN1C[C@@H](O)C1(c2ccc(Cl)cc2)CCC1` [(17), (S)-1-[1-(4-Chlorophenyl)cyclobutyl]-2-{(2S,5R)-2-methyl-5-[4-(trifluoromethyl)phenoxy]methyl}piperidin-1-ylethanol], the EC50 at NET (h) was 5 nM; on DAT (h) it was 1 nM; on 5-HT (h) it was more than 2000 nM.

As for `C[C@H]1CC[C@@H](COc2ccc(C(F)(F)F)cc2)CN1C[C@H](O)C1(c2ccc(Cl)cc2)CCC1` [(18), (R)-1-[1-(4-Chlorophenyl)cyclobutyl]-2-{(2S,5R)-2-methyl-5-[4-(trifluoromethyl)phenoxy]methyl}piperidin-1-ylethanol], the figures for the EC50 on NET (h), on DAT (h) and at 5-HT (h) were 2 nM, 1 nM and more than 2000 nM, respectively.

`C[C@@H]1CC[C@H](COc2ccc(C(F)(F)F)cc2)CN1C[C@H](O)C1(c2ccc(Cl)cc2)CCC1` [(19), (R)-1-[1-(4-Chlorophenyl)cyclobutyl]-2-{(2R,5S)-2-methyl-5-[4-(trifluoromethyl)phenoxy]methyl}piperidin-1-ylethanol]: the EC50 is 9 nM at NET (h), 1 nM at DAT (h) and more than 2000 nM on 5-HT (h).

Take `C[C@@H]1CC[C@H](COc2ccc(C(F)(F)F)cc2)CN1C[C@@H](O)C1(c2ccc(Cl)cc2)CCC1` [(20), (S)-1-[1-(4-Chlorophenyl)cyclobutyl]-2-{(2R,5S)-2-methyl-5-[4-(trifluoromethyl)phenoxy]methyl}piperidin-1-ylethanol]: the EC50 at NET (h) came to 2 nM; at DAT (h), 1 nM; at 5-HT (h), 20 nM.

Take `C[C@@H]1CC[C@@H](COc2ccc(C(F)(F)F)cc2)CN1C[C@@H](O)C1(c2ccc(Cl)cc2)CCC1` [(21), (S)-1-[1-(4-Chlorophenyl)cyclobutyl]-2-{(2R,5R)-2-methyl-5-[4-(trifluoromethyl)phenoxy]methyl}-piperidin-1-ylethanol]: the EC50 worked out at 5 nM on NET (h), 1 nM at DAT (h) and 10 nM at 5-HT (h).

As to `CC(C)C[C@@H](N)C1(c2ccc(Cl)cc2)CCC1` [R-DDMS, reference compound], the EC50 on NET (h) amounted to 200 nM; at DAT (h), 100 nM; at 5-HT (h), 1500 nM.

Regarding `CN[C@H](CC(C)C)C1(c2ccc(Cl)cc2)CCC1` [R-DMS, reference compound], the values for the EC50 at NET (h), at DAT (h) and on 5-HT (h) were 300 nM, 30 nM and 1500 nM, respectively.

As for `CC(C)CC(N(C)C)C1(c2ccc(Cl)cc2)CCC1` (centres unmarked) [Sibutramine], in the series on Sprague-Dawley rats (oral 100 mg/kg/day, 100 mg/kg/day), the “7 day multidose oral toxicology, symptoms” value is “decreased grip strength, depression”. Further, the “7 day multidose oral toxicology, symptoms” value in the series on Sprague-Dawley rats (oral 400 mg/kg/day, 400 mg/kg/day) is “convulsions; also recorded: Convulsions;”. Besides, in the series on Sprague-Dawley rats (n = 6, oral 200 mg/kg/day), the “7 day multidose oral toxicology, deaths” value was 2 deaths and the “7 day multidose oral toxicology, self-mutilation (number of animals)” value is recorded as 6 self-mutilation.
